Source: PubChem BioAssay (NCI)
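Here, GI50 denotes the concentration required for 50% inhibition of growth. TGI marks complete inhibition of growth.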

Assays:
Test in all cases: inhibition of tumour cell growth, NCI panel, 384-well format; in the data active means GI50 below about 0.43 µM; inactive means the rest
[1] = system: NCI-H522 lung
[2] = system: NCI/ADR-RES ovarian
[3] = system: NCI-H322M lung
[4] = system: MALME-3M melanoma
[5] = system: SR leukemia
[6] = system: SNB-75 CNS
[7] = system: K-562 leukemia
[8] = system: MOLT-4 leukemia
[9] = system: EKVX NSCLC
[10] = system: KM12 colon
[11] = system: NCI-H23 lung
[12] = system: OVCAR-8 ovarian
[13] = system: A549 NSCLC
[14] = system: SK-OV-3 ovarian
[15] = system: ACHN renal
[16] = system: HOP-62 NSCLC
[17] = system: MDA-MB-231 breast
[18] = system: SF-268 CNS
[19] = system: MDA-MB-468 breast
[20] = system: CCRF-CEM leukemia
[21] = system: UO-31 renal
[22] = system: SF-539 CNS
[23] = system: BT-549 breast
[24] = system: HS 578T breast
[25] = system: OVCAR-4 ovarian
[26] = system: SN12C renal
[27] = system: SK-MEL-28 melanoma
[28] = system: IGROV1 ovarian
[29] = system: UACC-257 melanoma
[30] = system: MCF7 breast
[31] = system: T-47D breast
[32] = system: HOP-92 NSCLC
[33] = system: TK-10 renal
[34] = system: COLO 205 colon
[35] = system: A498 renal
[36] = system: HCT-15 colon
[37] = system: SW-620 colon
[38] = system: CAKI-1 renal
[39] = system: RXF 393 renal
[40] = system: OVCAR-3 ovarian
[41] = system: SK-MEL-5 melanoma
[42] = system: 786-0 renal
[43] = system: HCC-2998 colon
[44] = system: DU-145 prostate
[45] = system: NCI-H460 NSCLC
[46] = system: MDA-MB-435 melanoma
[47] = system: M14 melanoma
[48] = system: HT29 colon
[49] = system: UACC-62 melanoma
[50] = system: PC-3 prostate
[51] = system: HL-60(TB) leukemia
[52] = system: LOX IMVI melanoma
[53] = system: SNB-19 CNS
[54] = system: NCI-H226 lung
[55] = system: OVCAR-5 ovarian
[56] = system: SF-295 CNS
[57] = system: RPMI-8226 leukemia

CCOCCOC[C@H]1CCCN(c2ccnc3sc(C(N)=O)c(N)c23)C1
> 100 µM: TGI [1] | TGI [3] | TGI [4] | TGI [6] | TGI [7] | TGI [9] | TGI [10] | TGI [11] | TGI [12] | TGI [13] | TGI [14] | TGI [15] | TGI [16] | TGI [17] | TGI [18] | TGI [21] | TGI [22] | TGI [23] | TGI [24] | TGI [25] | TGI [26] | TGI [27] | TGI [28] | TGI [29] | TGI [30] | TGI [32] | TGI [33] | TGI [34] | TGI [35] | TGI [36] | TGI [37] | TGI [38] | TGI [39] | TGI [40] | TGI [42] | TGI [43] | TGI [44] | TGI [45] | TGI [46] | TGI [47] | TGI [48] | TGI [49] | TGI [50] | TGI [52] | TGI [53] | TGI [54] | TGI [55] | TGI [56]
63.8 µM: TGI [51]
27.6 µM: TGI [2]
3.5 µM: TGI [5]
67.4 µM: TGI [31]
7.04 µM: TGI [19]
18.1 µM: TGI [41]
23.1 µM: TGI [8]
14.4 µM: TGI [57]
inactive: GI50 [1] 5.77 µM | GI50 [2] 3.53 µM | GI50 [3] 13.4 µM | GI50 [4] > 100 µM | GI50 [5] 1.07 µM | GI50 [6] > 100 µM | GI50 [7] 4.6 µM | GI50 [8] 3.13 µM | GI50 [9] 35.1 µM | GI50 [10] 46.7 µM | GI50 [11] 7.19 µM | GI50 [12] 15.2 µM | GI50 [13] > 100 µM | GI50 [14] 17.6 µM | GI50 [15] 44.9 µM | GI50 [16] 18.5 µM | GI50 [17] 82.3 µM | GI50 [18] > 100 µM | GI50 [19] 1.34 µM | GI50 [20] 1.43 µM | GI50 [21] > 100 µM | GI50 [22] > 100 µM | GI50 [23] 79.1 µM | GI50 [24] > 100 µM | GI50 [25] 34.1 µM | GI50 [26] > 100 µM | GI50 [27] > 100 µM | GI50 [28] 29.6 µM | GI50 [29] 61.1 µM | GI50 [30] 23 µM | GI50 [31] 2.23 µM | GI50 [32] > 100 µM | GI50 [33] > 100 µM | GI50 [34] 61.6 µM | GI50 [35] 13.9 µM | GI50 [36] > 100 µM | GI50 [37] > 100 µM | GI50 [38] > 100 µM | GI50 [39] 12.9 µM | GI50 [40] 23.8 µM | GI50 [41] 2.56 µM | GI50 [42] 43.9 µM | GI50 [43] > 100 µM | GI50 [44] > 100 µM | GI50 [45] 11.4 µM | GI50 [46] > 100 µM | GI50 [47] > 100 µM | GI50 [48] > 100 µM | GI50 [49] 35.6 µM | GI50 [50] 55.1 µM | GI50 [51] 13.5 µM | GI50 [52] 16.9 µM | GI50 [53] > 100 µM | GI50 [54] 90.9 µM | GI50 [55] > 100 µM | GI50 [56] 59.3 µM | GI50 [57] 0.499 µM
11.2 µM: TGI [20]
